Key:
[1] = target: benzodiazepine receptor sites (GABAA receptor complex); test: In vitro inhibition of 3H-flunitrazepam (3H-FNM) binding, cerebral cortex membranes; conditions: inhibition of specific binding of 3H-FNM (1 nM), rat cerebral cortex membranes, 40 min at 2° C.
Method: The affinity of various potential ligands for the benzodiazepine receptor sites can thus be evaluated by estimating the ability of test compounds to displace ^3H-flunitrazepam.
Tissue Preparation: Preparations are performed at 0-4° C. unless otherwise indicated.
Cerebral cortex from male Wistar rats (150-200 g) is homogenized for 5-10 sec in 20 ml Tris-HCl (30 mM, pH 7.4) using an Ultra-Turrax homogenizer. The suspension is centrifuged at 27,000×g for 15 min, and the pellet is washed three times with buffer (centrifuged at 27,000×g for 10 min). The washed pellet is homogenized in 20 ml of buffer and incubated on a water bath (37° C.) for 30 min to remove endogenous GABA and then centrifuged for 10 min at 27,000×g. The pellet is then homogenized in buffer and centrifuged for 10 min at 27,000×g. The final pellet is resuspended in 30 ml buffer and the preparation is frozen and stored at −20° C.
Assay: The membrane preparation is thawed and centrifuged at 2° C. for 10 min at 27,000×g. The pellet is washed twice with 20 ml 50 mM Tris-citrate, pH 7.1 using an Ultra-Turrax homogenizer and centrifuged for 10 min at 27,000×g. The final pellet is resuspended in 50 mM Tris-citrate, pH 7.1 (500 ml buffer per g of original tissue), and then used for binding assays. Aliquots of 0.5 ml tissue are added to 25 μl of test solution and 25 μl of ^3H-FNM (1 nM, final concentration), mixed and incubated for 40 min at 2° C. Non-specific binding is determined using clonazepam (1 μM, final concentration). After incubation the samples are added 5 ml of ice-cold buffer and poured directly onto Whatman GF/C glass fibre filters under suction and immediately washed with 5 ml ice-cold buffer. The amount of radioactivity on the filters is determined by conventional liquid scintillation counting. Specific binding is total binding minus non-specific binding.
The test value is calculated as the IC50 (the concentration (nM) of the test substance which inhibits the specific binding of ^3H—FNM by 50%).

Row | Compound | IC50 [1] | melting point
1 | COC(=O)CON=C(C)c1ccc2c(c1)ncn2-c1cccc(N2CCN(CCO)CC2)c1 [compound 5c1, 5-Acetyl-1-(3-(4-(2-hydroxyethyl)piperazin-1-yl)phenyl)benzimidazole O-(methoxy-carbonylmethyl) oxime] | 19 nM | 117 to 119 °C
2 | CCOC(=O)c1cccc(-n2cnc3cc(-c4ccno4)ccc32)c1 [compound 6a2, 5-(5-Isoxazolyl)-1-(3-ethoxycarbonyl)phenyl benzimidazole] | 3 nM | 156 to 157 °C
3 | O=C(OCc1ccccn1)c1cccc(-n2cnc3cc(-c4ccccc4)ccc32)c1 [compound 6b3, 5-Phenyl-1-(3-(2-picolyloxycarbonyl)phenyl)benzimidazole] | 8 nM | 149 to 150 °C
4 | CCOC(=O)C(=CN1CCN(c2cccc(-n3cnc4cc(-c5ccoc5)ccc43)c2)CC1)C(=O)OCC [compound 6c6, 5-(3-Furanyl)-1-(3-(4-(2,2-bis(ethoxycarbonyl)ethenyl)piperazin-1-yl)phenyl)-benzimidazole] | 7 nM | 97 to 102 °C
